A short description of data set [1]: Toxicity in iv dosed ICR mouse assessed as lethality. The following applies: in vivo.
Another data set can be described thus: in vivo. The following applies: ICR, mouse, iv.

As a reminder, the LD50 is the dose at which mortality reaches 50%.

For `CN1CCC[C@H]1c1cccnc1.O=C(O)C(O)C(O)C(=O)O.O=C(O)C(O)C(O)C(=O)O`, the LD50 in data set [1] came to 0.38 mg/kg. Also, the selectivity ratio in the data set “in vivo” was found to be 7.24. For the molecule `CN1CCC[C@@H]1c1cccnc1.O=C(O)C(O)C(O)C(=O)O.O=C(O)C(O)C(O)C(=O)O`, the LD50 in data set [1] worked out at 2.75 mg/kg.

Source of the values: ChEMBL document CHEMBL3227980, “Optically pure (+)-nicotine from (+/-)-nicotine and biological comparisons with (-)-nicotine” (J Med Chem, 1979).
